For the first assay, the system named is NCI-H226. Put plainly: 72H TEAD Proliferation Assay (Cell Titer Glo 2.0). The conditions noted are these: CTG 2.0, cell line not given (NCI-H226 responsive, NCI-H28 non-responsive). It counts as cell-based. The method, boiled down: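 NF2-deficient NCI-H226 mesothelioma cells, TEAD-dependent, treated 72 h; NF2-wild-type NCI-H28 serves as the TEAD-independent counter-screen for off-target cytotoxicity. Viable cells quantified by CellTiter-Glo 2.0 luminescence; background and time-zero signal subtracted, GI50 from nonlinear dose-response fit.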
Take `CC(C)(C)c1ccc(-c2nc3cc(S(C)(=N)=O)ccc3n3cccc23)cc1` (single isomer, unassigned) [I-209, (4-(4-(tert-Butyl)phenyl)pyrrolo[1,2-a]quinoxalin-7-yl)(imino)(methyl)-16-sulfanone]: the GI50 (commonly the concentration at which growth is held to half of that of the control) was 5000 to 10000 nM.

The same assay, now with this note: Homo sapiens, NCI-H226, 72 h, CTG 2.0, cell line not given (NCI-H226 responsive, NCI-H28 non-responsive).
For the compound `CC(C)(C)c1ccc(-c2nc3cc(C(=O)O)ccc3n3ncnc23)cc1` [I-287, 4-(4-(tert-butyl)phenyl)-[1,2,4]triazolo[1,5-a]quinoxaline-7-carboxylic acid], the GI50 is 1000 to 5000 nM.

In turn, `C=CC(=O)NCc1nc(-c2ccc(OC(F)(F)F)cc2)c2ccc(F)cc2n1` [I-447, N-((7-fluoro-4-(4-(trifluoromethoxy)phenyl)quinazolin-2-yl)methyl)acrylamide] had a GI50 of no more than 1000 nM.

Consider `C=CC(=O)NC(C)c1cn2ccnc2c(-c2ccc(C(F)(F)F)cc2)n1` (centres unmarked) [I-172, N-(1-(8-(4-(trifluoromethyl)phenyl)imidazo[1,2-a]pyrazin-6-yl)ethyl)acrylamide], for which the GI50 was no more than 1000 nM.

Compound `CC(C)(C)c1ccc(-c2nc3cc(S(C)(=O)=O)ccc3n3cccc23)cc1` [I-323, 4-(4-(tert-butyl)phenyl)-7-(methylsulfonyl)pyrrolo[1,2-a]quinoxaline] showed a GI50 of 1000 to 5000 nM.

`CC(C)(C)c1ccc(-c2nc(C(=O)O)cn3ccnc23)cc1` [I-147, 8-(4-(tert-Butyl)phenyl)imidazo[1,2-a]pyrazine-6-carboxylic acid] gave a GI50 greater than 10000 nM.

Consider `C=CC(=O)NCc1nc(-c2ccc(C(F)(F)F)cc2F)c2ccccc2n1` [I-303, N-((4-(2-fluoro-4-(trifluoromethyl)phenyl)quinazolin-2-yl)methyl)acrylamide], for which the GI50 was no more than 1000 nM.

The compound `C=C(F)C(=O)NCc1cc2ccccc2c(-c2ccc(C(F)(F)F)cc2)n1` [I-168, 2-Fluoro-N-((1-(4-(trifluoromethyl)phenyl)isoquinolin-3-yl)methyl)acrylamide] returned a GI50 of no more than 1000 nM.

On to `O=C(O)c1ccc2c(c1)nc(N1CCC3(CCCC3)C1)c1cccn12` [I-9, 4-(2-Azaspiro[4.4]nonan-2-yl)pyrrolo[1,2-a]quinoxaline-7-carboxylic acid], for which the GI50 is 1000 to 5000 nM.

`C=CC(=O)N1CCc2c(cccc2-c2ccc(C(F)(F)F)cc2)C1` [I-136, 1-(5-(4-(Trifluoromethyl)phenyl)-3,4-dihydroisoquinolin-2(1H)-yl)prop-2-en-1-one] came in with a GI50 of no more than 1000 nM.

For `COc1cc(-c2ccc(C(F)(F)F)cc2)nc2cc(C(=O)N[C@H](C)CO)ccc12` [I-324, (R)—N-(1-hydroxypropan-2-yl)-4-methoxy-2-(4-(trifluoromethyl)phenyl)quinoline-7-carboxamide], the GI50 was no more than 1000 nM.

The compound `CC(C)(C)c1ccc(-c2nc(CCc3nnn[nH]3)cn3ccnc23)cc1` [I-156, 6-(2-(1H-tetrazol-5-yl)ethyl)-8-(4-(tert-butyl)phenyl)imidazo[1,2-a]pyrazine] displayed a GI50 greater than 10000 nM.

In the case of `C=CC(=O)NCc1cc2nccn2c(-c2ccc(C(F)(F)F)cc2)n1` [I-315, N-((5-(4-(trifluoromethyl)phenyl)imidazo[1,2-c]pyrimidin-7-yl)methyl)acrylamide], the GI50 is no more than 1000 nM.

With `C=CC(=O)Nc1ccc2cnc(-c3ccc(F)cc3)nc2c1` [I-82, N-(2-(4-Fluorophenyl)quinazolin-7-yl)acrylamide], the GI50 was in the range of 1000 to 5000 nM.

Consider `C=CC(=O)NCc1cn2cccc2c(-c2ccc(C(F)(F)F)cc2)n1` [I-319, N-((1-(4-(trifluoromethyl)phenyl)pyrrolo[1,2-a]pyrazin-3-yl)methyl)acrylamide], for which the GI50 was no more than 1000 nM.

In turn, `C[C@H](CO)NC(=O)c1ccc2ccc(-c3ccc(C(F)(F)F)cc3)nc2c1` [I-427, (R)—N-(1-hydroxypropan-2-yl)-2-(4-(trifluoromethyl)phenyl)quinoline-7-carboxamide] yielded a GI50 of 1000 to 5000 nM.

Compound `COc1cc(N2CCC(C(F)(F)F)CC2)nc2cc(C(=O)N[C@H](C)CO)ccc12` [I-328, (R)—N-(1-hydroxypropan-2-yl)-4-methoxy-2-(4-(trifluoromethyl)piperidin-1-yl)quinoline-7-carboxamide] showed a 50% growth inhibitory concentration (GI50) of 1000 to 5000 nM.
